{"source": "patent US11633370B2", "about": "“Use of scavengers of reactive gamma-ketoaldehydes to extend cell lifespan and healthspan” (Vanderbilt University, priority 2016, dated 2023)", "target": "T1, recombinant human SIRT1 (Homo sapiens, UniProt Q96EB6)", "T1 construct": "purchased R&D Systems, Biotechne", "T1 sequence (Q96EB6 1-747)": "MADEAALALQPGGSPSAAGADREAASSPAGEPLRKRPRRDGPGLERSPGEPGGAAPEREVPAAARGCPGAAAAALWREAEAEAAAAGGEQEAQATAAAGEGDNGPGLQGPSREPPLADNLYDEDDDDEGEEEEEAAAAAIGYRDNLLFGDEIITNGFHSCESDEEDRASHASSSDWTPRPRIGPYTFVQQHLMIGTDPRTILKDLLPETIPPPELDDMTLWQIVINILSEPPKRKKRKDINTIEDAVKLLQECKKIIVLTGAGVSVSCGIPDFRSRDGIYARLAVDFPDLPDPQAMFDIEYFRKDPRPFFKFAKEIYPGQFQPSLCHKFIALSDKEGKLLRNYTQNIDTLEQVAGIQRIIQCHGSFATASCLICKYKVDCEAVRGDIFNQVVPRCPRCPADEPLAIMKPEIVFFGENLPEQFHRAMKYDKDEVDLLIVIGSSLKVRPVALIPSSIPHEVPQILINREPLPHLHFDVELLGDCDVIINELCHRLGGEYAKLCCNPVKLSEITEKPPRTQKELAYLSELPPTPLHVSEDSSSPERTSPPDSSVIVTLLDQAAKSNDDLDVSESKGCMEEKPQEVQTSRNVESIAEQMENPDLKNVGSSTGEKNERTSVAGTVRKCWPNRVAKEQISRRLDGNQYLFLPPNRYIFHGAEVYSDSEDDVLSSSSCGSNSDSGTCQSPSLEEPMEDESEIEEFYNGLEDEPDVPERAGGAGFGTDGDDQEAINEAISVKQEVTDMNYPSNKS", "assay": "NAD+-dependent deacetylation bioluminescence assay (SIRT-Glo)", "type": "biochemical", "settings": "Sirt-Glo luminescence assay, three independent experiments; read-out: IC50, inhibition of deacetylase activity", "experimental": "Though SA treatment should prevent IsoK adduct formation on many different protein targets, and many of these proteins could have some impact on lifespan and healthspan, the present inventors determined that there would be specific proteins of particular importance in mediating SA's beneficial effects. Specifically, the present inventors recognized that SIR-2.1 would be one of these “high value targets” for several reasons. […] Recombinant human SIRT1 was incubated with increasing concentrations of synthetically pure IsoK, and enzymatic deacetylase activity was assessed using the luminescence based Sirt-Glo assay (Promega).\nRelative activity of the NAD+-dependent histone deacetylase (HDAC) class III enzymes (sirtuins) was measured using the SIRT-Glo™ Assay and Screening System (Promega Corporation, Madison, Wis.) according to the manufacturer's instructions with minor modifications. […] Deacetylation of the peptide substrate is measured using a coupled enzymatic system with a protease in the reagent provided and then cleaves the luminogenic peptide to liberate aminoluciferin. Free aminoluciferin can be quantified using the Ultra-Glo™ firefly luciferase reaction to produce a stable, persistent emission of light. […] 15-E2-IsoK was synthesized by the method of Armanath et al. Luminescence was detected by a microplate reader (FLUOstar Optima microplate reader, BMG Labtechnologies)."}
{"substance": "15-E2-IsoK", "values": [{"measurement": "IC50", "result": 97.8, "unit": "µM"}]}
